From patent publication US20250059220A1, “SUBSTITUTED BENZOTHIOPHENE DERIVATIVES AND METHODS OF USE THEREOF” (Merck Sharp & Dohme LLC, priority 2021, published 2025)

Assays:
human PTPN1 (1-435) = human PTPN1 (1-435) (Homo sapiens (Human), UniProt P18031); experiment: Human PTPN1 Biochemical Assay; settings: DiFMUP substrate, read-out: PTP1B IC50
How it was run: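 Read-out is DiFMUP hydrolysis fluorescence (360 nm excitation, 460 nm emission) after 1 h at room temperature, following 30 min enzyme–compound preincubation.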

human PTPN2 (1-387) = human PTPN2 (1-387) (Homo sapiens (Human), UniProt P17706); experiment: Human PTPN2 Biochemical Assay; settings: DiFMUP substrate
How it was run: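 Human PTPN2 (1-387) preincubated 30 min at RT with compound (10-point 3-fold series) in Tris pH 7.4 buffer with 0.5 mM DTT, then DiFMUP substrate added for 1 h at RT. Fluorescence at ex 360/em 460 nm, normalised to no-enzyme and enzyme controls; EC50 from 4-parameter fit.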

Sequence of human PTPN1 (1-435) (P18031 whole entry): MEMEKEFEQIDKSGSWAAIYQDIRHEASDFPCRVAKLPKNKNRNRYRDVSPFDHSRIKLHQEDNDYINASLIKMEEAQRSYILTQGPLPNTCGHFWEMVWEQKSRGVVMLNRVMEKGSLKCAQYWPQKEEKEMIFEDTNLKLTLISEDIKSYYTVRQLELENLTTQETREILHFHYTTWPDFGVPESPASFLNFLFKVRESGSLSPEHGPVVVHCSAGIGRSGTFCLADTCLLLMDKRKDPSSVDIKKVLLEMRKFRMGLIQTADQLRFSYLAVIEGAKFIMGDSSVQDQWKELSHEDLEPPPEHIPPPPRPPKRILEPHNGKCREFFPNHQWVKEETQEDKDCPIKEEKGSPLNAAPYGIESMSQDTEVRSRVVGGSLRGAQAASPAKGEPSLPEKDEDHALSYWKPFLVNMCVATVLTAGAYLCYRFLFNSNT
Sequence of human PTPN2 (1-387) (P17706 other isoform, or with tags, fused parts or gaps): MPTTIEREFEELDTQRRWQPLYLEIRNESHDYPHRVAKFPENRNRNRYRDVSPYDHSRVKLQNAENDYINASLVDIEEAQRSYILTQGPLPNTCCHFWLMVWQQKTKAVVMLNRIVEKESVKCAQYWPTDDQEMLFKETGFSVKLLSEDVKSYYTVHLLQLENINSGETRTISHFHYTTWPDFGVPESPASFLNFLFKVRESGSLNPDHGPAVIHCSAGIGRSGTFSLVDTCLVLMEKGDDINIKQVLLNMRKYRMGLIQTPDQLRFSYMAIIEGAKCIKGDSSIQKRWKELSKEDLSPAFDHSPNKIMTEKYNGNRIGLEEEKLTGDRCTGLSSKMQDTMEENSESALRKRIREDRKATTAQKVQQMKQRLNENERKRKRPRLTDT

Row | Structure (SMILES) | IC50 (human PTPN1 (1-435)) [µM] | IC50 (human PTPN2 (1-387)) [µM]
1 | NC(=O)c1cc(OCc2ccc(C(F)(F)F)cc2C(F)(F)F)c2sc(C(F)(F)P(=O)(O)O)c(Br)c2c1 [Compound 340] | 0.283 | 0.116
2 | NC(=O)c1cc(OCc2cc(C(F)(F)F)cc(C(F)(F)F)c2)c2sc(C(F)(F)P(=O)(O)O)c(Br)c2c1 [Compound 384] | 0.299 | 0.351
3 | CN1C[C@H]2[C@H](CNC(=O)c3ccc4sc(C(F)(F)P(=O)(O)O)c(Br)c4c3)[C@H]2c2ccccc21 [Compound 78] | 1.09 | 1.03
4 | O=C(NCc1n[nH]c(=O)[nH]1)c1ccc2sc(C(F)(F)P(=O)(O)O)c(Br)c2c1 [Compound 187] | 0.961 | 1.86
5 | O=C(NCc1cnccn1)c1ccc2sc(C(F)(F)P(=O)(O)O)c(Br)c2c1 [Compound 123] | 3.56 | 4.29
6 | O=C(NC(c1cccnc1)C(F)(F)F)c1ccc2sc(C(F)(F)P(=O)(O)O)c(Br)c2c1 (stereo not shown) [Compound 158] | 1.45 | 0.456
7 | N#CCCNC(=O)c1ccc2sc(C(F)(F)P(=O)(O)O)c(C#N)c2c1 [Compound 6] | 6.05 | 4.64
8 | O=C(NC1CCCN(Cc2ccccc2F)C1)c1ccc2sc(C(F)(F)P(=O)(O)O)c(Br)c2c1 (stereo not shown) [Compound 68] | 3.77 | 4.24
9 | O=C(NCc1c[nH]nn1)c1cc(O)c2sc(C(F)(F)P(=O)(O)O)c(Br)c2c1 [Compound 167] | 3.56 | 3.07
10 | O=C(NC1CC(F)(F)C1)c1ccc2sc(C(F)(F)P(=O)(O)O)c(Br)c2c1 [Compound 27] | 2.19 | 3.23
11 | N#Cc1cccc(-c2cccc(NC(=O)c3ccc4sc(C(F)(F)P(=O)(O)O)c(Br)c4c3)c2)c1 [Compound 66] | 0.516 | 0.719
12 | O=C(NC1CCS(=O)(=O)C1)c1ccc2sc(C(F)(F)P(=O)(O)O)c(Br)c2c1 (stereo not shown) [Compound 56] | 2.88 | 3.93
13 | C[C@@H](Cc1cccc(C(F)(F)F)c1)NC(=O)c1ccc2sc(C(F)(F)P(=O)(O)O)c(Br)c2c1 [Compound 69] | 6.25 | 4.16
14 | O=C(Nc1cccc(F)c1)c1ccc2sc(C(F)(F)P(=O)(O)O)c(Br)c2c1 [Compound 33] | 2.12 | 1.86
15 | O=C(NCc1c[nH]nn1)c1cc(F)c2sc(C(F)(F)P(=O)(O)O)c(Br)c2c1 [Compound 165] | 0.675 | 0.39
16 | O=C(NCC1CC1)c1ccc2sc(C(F)(F)P(=O)(O)O)c(Br)c2c1 [Compound 16] | 5.12 | 7.25

Now from value to compound:

Row | IC50 (human PTPN1 (1-435)) [µM] | IC50 (human PTPN2 (1-387)) [µM] | Structure (SMILES)
17 | 0.174 | 0.104 | NC(=O)c1cc(OCc2ccc(F)c(C(F)(F)F)c2)c2sc(C(F)(F)P(=O)(O)O)c(Br)c2c1 [Compound 351]
18 | 0.11 | 0.106 | NC(=O)c1cc(OCCCOC(F)(F)F)c2sc(C(F)(F)P(=O)(O)O)c(Br)c2c1 [Compound 252]
19 | 0.231 | 0.5 | CCCC(CO)Oc1cc(C(N)=O)cc2c(Br)c(C(F)(F)P(=O)(O)O)sc12 (stereo not shown) [Compound 447, ((3-bromo-5-carbamoyl-7-((1-hydroxypentan-2-yl)oxy)benzo[b]thiophen-2-yl)difluoromethyl)phosphonic acid]
20 | 0.49 | 0.773 | COC(C)(C)C#Cc1cc(C(N)=O)cc2c(Br)c(C(F)(F)P(=O)(O)O)sc12 [Compound 234, ((3-bromo-5-carbamoyl-7-(3-methoxy-3-methylbut-1-yn-1-yl)benzo[b]thiophen-2-yl)difluoromethyl)phosphonic acid]
21 | 0.0141 | 0.0078 | CS(=O)(=O)c1ccc(COc2cc(C(N)=O)cc3c(Br)c(C(F)(F)P(=O)(O)O)sc23)c(F)c1 [Compound 389]
22 | 0.069 | 0.108 | C[C@@H]1C[C@@]1(F)COc1cc(C(N)=O)cc2c(Br)c(C(F)(F)P(=O)(O)O)sc12 [Compound 277]
23 | 0.0257 | 0.0164 | CC(C)(O)CCCOc1cc(C(N)=O)cc2c(Br)c(C(F)(F)P(=O)(O)O)sc12 [Compound 306]
